# Reference: the supplement of paper PMC8149375
# Key:
# Details in all cases: treatment: drug + dasatinib (fixed dose, not stated); 5 days
# 769-P [1] = test: AUC of dose-response viability curve, drug + dasatinib, normalised to DMSO (arbitrary (AUC of normalised viability)); higher = less growth inhibition
# Procedure: (§1)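 Primary HTS combination arm: 8 RCC cell lines treated with 8 doses (up to 10 uM) of each library drug plus a fixed dose of dasatinib (dose not stated) for 5 days; viability read by CellTiter-Glo and normalised to DMSO. GI50 was fitted with XLfit, AUC is the area under the dose-response curve, and minimum viability is the lowest fraction of DMSO viability across doses.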
# 786-O [2] = test: as above
# Procedure: as §1
# CAKI-1 [3] = test: as above
# Procedure: as §1
# ACHN [4] = test: as above
# Procedure: as §1
# A498 [5] = test: as above
# Procedure: as §1
# SN12C [6] = test: as above
# Procedure: as §1
# TK-10 [7] = test: as above
# Procedure: as §1
# UO-31 [8] = test: as above
# Procedure: as §1
# 769-P [9] = test: GI50 of drug in presence of dasatinib; higher = less potent
# Procedure: as §1
# 786-O [10] = test: as above
# Procedure: as §1
# CAKI-1 [11] = test: as above
# Procedure: as §1
# ACHN [12] = test: as above
# Procedure: as §1
# A498 [13] = test: as above
# Procedure: as §1
# SN12C [14] = test: as above
# Procedure: as §1
# TK-10 [15] = test: as above
# Procedure: as §1
# UO-31 [16] = test: as above
# Procedure: as §1
# 769-P [17] = test: minimum viability across doses, drug + dasatinib, relative to DMSO (fraction); higher = less growth inhibition
# Procedure: as §1
# 786-O [18] = test: as above
# Procedure: as §1
# CAKI-1 [19] = test: as above
# Procedure: as §1
# ACHN [20] = test: as above
# Procedure: as §1
# A498 [21] = test: as above
# Procedure: as §1
# SN12C [22] = test: as above
# Procedure: as §1
# TK-10 [23] = test: as above
# Procedure: as §1
# UO-31 [24] = test: as above
# Procedure: as §1
Structure (SMILES),AUC of dose-response viability curve (769-P [1]),AUC of dose-response viability curve (786-O [2]),AUC of dose-response viability curve (CAKI-1 [3]),AUC of dose-response viability curve (ACHN [4]),AUC of dose-response viability curve (A498 [5]),AUC of dose-response viability curve (SN12C [6]),AUC of dose-response viability curve (TK-10 [7]),AUC of dose-response viability curve (UO-31 [8]),GI50 of drug (769-P [9]) [µM],GI50 of drug (786-O [10]) [nM],GI50 of drug (CAKI-1 [11]) [nM],GI50 of drug (ACHN [12]) [nM],GI50 of drug (A498 [13]) [µM],GI50 of drug (SN12C [14]) [µM],GI50 of drug (TK-10 [15]) [µM],GI50 of drug (UO-31 [16]) [µM],minimum viability across doses (769-P [17]),minimum viability across doses (786-O [18]),minimum viability across doses (CAKI-1 [19]),minimum viability across doses (ACHN [20]),minimum viability across doses (A498 [21]),minimum viability across doses (SN12C [22]),minimum viability across doses (TK-10 [23]),minimum viability across doses (UO-31 [24])
COc1ccc(COc2cc3oc(=O)c4cc(C(C)O)ccc4c3cc2OC)cc1 (configuration not stated) [Palomid 529] + Cc1nc(Nc2ncc(C(=O)Nc3c(C)cccc3Cl)s2)cc(N2CCN(CCO)CC2)n1 [dasatinib],2.29,2.05,2.25,2.1,3.49,2.53,2.53,4.61,6.22,2960,5940,> 10000,> 10,> 10,> 10,> 10,0.415,0.324,0.414,0.539,0.857,0.707,0.635,1.17
Cc1ccc(Nc2nccc(N(C)c3ccc4c(C)n(C)nc4c3)n2)cc1S(N)(=O)=O.Cl [Pazopanib HCl] + Cc1nc(Nc2ncc(C(=O)Nc3c(C)cccc3Cl)s2)cc(N2CCN(CCO)CC2)n1 [dasatinib],2.22,2.29,1.86,2.13,3.16,2.37,2.54,3.27,8.32,< 3,925,1340,> 10,3.1,8.59,8.02,0.123,0.277,0.0765,0.175,0.522,0.327,0.469,0.248
CCOc1cc2ncc(C#N)c(Nc3ccc(F)c(Cl)c3)c2cc1NC(=O)/C=C/CN(C)C [Pelitinib (EKB-569)] + Cc1nc(Nc2ncc(C(=O)Nc3c(C)cccc3Cl)s2)cc(N2CCN(CCO)CC2)n1 [dasatinib],1.38,1.79,1.17,0.845,2.55,1.78,1.43,1.8,0.0484,404,60.6,7.21,1.08,0.864,0.0611,0.216,0.0321,0.00483,0.0303,0.00232,0.0177,0.00631,0.00649,0.0179
Cl.N=C(N)NC(=N)NCCc1ccccc1 [Phenformin hydrochloride] + Cc1nc(Nc2ncc(C(=O)Nc3c(C)cccc3Cl)s2)cc(N2CCN(CCO)CC2)n1 [dasatinib],2.41,1.84,2.28,2.08,3.25,2.36,2.35,2.83,> 10,1060,> 10000,3140,> 10,4.33,5.02,4.39,0.623,0.115,0.578,0.357,0.676,0.114,0.315,0.194
Br.Cc1ccc(C(=O)Cn2c3c(sc2=N)CCCC3)cc1 [Pifithrin-α] + Cc1nc(Nc2ncc(C(=O)Nc3c(C)cccc3Cl)s2)cc(N2CCN(CCO)CC2)n1 [dasatinib],2.63,2.26,2.13,2.03,3.57,2.53,2.3,4.02,> 10,> 10000,> 10000,3780,> 10,> 10,> 10,> 10,0.696,0.535,0.529,0.391,0.901,0.656,0.59,0.998
Nc1cccc2c1C(=O)N(C1CCC(=O)NC1=O)C2=O (configuration not stated) [Pomalidomide] + Cc1nc(Nc2ncc(C(=O)Nc3c(C)cccc3Cl)s2)cc(N2CCN(CCO)CC2)n1 [dasatinib],2.65,2.67,2.38,2.15,3.27,2.58,2.5,3.3,> 10,> 10000,> 10000,> 10000,> 10,> 10,> 10,> 10,0.65,0.617,0.642,0.542,0.857,0.711,0.639,0.868
O=c1c(O)c(-c2ccc(O)c(O)c2)oc2cc(O)cc(O)c12 [Quercetin (Sophoretin)] + Cc1nc(Nc2ncc(C(=O)Nc3c(C)cccc3Cl)s2)cc(N2CCN(CCO)CC2)n1 [dasatinib],2.42,1.89,2.35,2.14,3.26,2.52,2.47,3.51,> 10,> 10000,> 10000,> 10000,> 10,> 10,> 10,> 10,0.618,0.45,0.576,0.56,0.879,0.692,0.67,0.844
CC(C)(C)c1cc(NC(=O)Nc2ccc(-c3cn4c(n3)sc3cc(OCCN5CCOCC5)ccc34)cc2)no1 [Quizartinib (AC220)] + Cc1nc(Nc2ncc(C(=O)Nc3c(C)cccc3Cl)s2)cc(N2CCN(CCO)CC2)n1 [dasatinib],2.19,2.25,2.02,1.89,2.87,2.29,2.54,3.94,2.37,1560,1080,2020,6.27,> 10,> 10,> 10,0.432,0.256,0.378,0.315,0.115,0.627,0.622,0.859
COc1cc(Nc2ncc(F)c(Nc3ccc4c(n3)NC(=O)C(C)(C)O4)n2)cc(OC)c1OC [R406(free base)] + Cc1nc(Nc2ncc(C(=O)Nc3c(C)cccc3Cl)s2)cc(N2CCN(CCO)CC2)n1 [dasatinib],2.08,1.77,1.54,1.11,3.18,2.05,2.19,3.16,1.53,571,231,32,> 10,1.39,1.38,1.61,0.13,0.168,0.0291,0.0361,0.591,0.189,0.348,0.0124
COc1cc(Nc2ncc(F)c(Nc3ccc4c(n3)NC(=O)C(C)(C)O4)n2)cc(OC)c1OC.O=S(=O)(O)c1ccccc1 [R406] + Cc1nc(Nc2ncc(C(=O)Nc3c(C)cccc3Cl)s2)cc(N2CCN(CCO)CC2)n1 [dasatinib],2.23,1.91,1.53,1.71,3.28,2.04,2.22,2.12,2.2,724,240,173,> 10,0.908,1.58,1.57,0.139,0.232,0.0338,0.0817,0.675,0.235,0.347,0.0103
COc1cc(Nc2ncc(F)c(Nc3ccc4c(n3)N(COP(=O)(O)O)C(=O)C(C)(C)O4)n2)cc(OC)c1OC [R788 (Fostamatinib)] + Cc1nc(Nc2ncc(C(=O)Nc3c(C)cccc3Cl)s2)cc(N2CCN(CCO)CC2)n1 [dasatinib],2,1.88,1.47,1.45,3.69,2.02,2.16,3.58,0.993,366,195,183,> 10,0.983,0.963,2.4,0.0614,0.199,0.00427,0.04,0.61,0.179,0.254,0.0153
FC(F)(F)c1ccc(Nc2nc3cc(Oc4ccnc(-c5ncc(C(F)(F)F)[nH]5)c4)ccc3[nH]2)cc1 [Raf265 derivative] + Cc1nc(Nc2ncc(C(=O)Nc3c(C)cccc3Cl)s2)cc(N2CCN(CCO)CC2)n1 [dasatinib],2.37,2.47,2.35,2.21,3.35,2.47,2.73,3.44,5.01,5020,3550,3300,> 10,> 10,9.07,> 10,0.318,0.241,0.173,0.137,0.633,0.484,0.476,0.551
"CC[C@H](CO)Nc1nc(NCc2ccccc2)c2ncn(C(C)C)c2n1 [Roscovitine (Seliciclib, CYC202)] + Cc1nc(Nc2ncc(C(=O)Nc3c(C)cccc3Cl)s2)cc(N2CCN(CCO)CC2)n1 [dasatinib]",2.52,2.32,2.54,2.15,3.29,2.52,2.74,3.04,> 10,4900,> 10000,3630,> 10,> 10,> 10,9.07,0.595,0.259,0.514,0.266,0.847,0.669,0.675,0.272
